In this assay the target is T1, FLT3^D835Y (Homo sapiens, UniProt P36888, D835Y).
T1 construct: purchased Merck Millipore 14-610
T1 sequence (P36888 27-993 D835Y): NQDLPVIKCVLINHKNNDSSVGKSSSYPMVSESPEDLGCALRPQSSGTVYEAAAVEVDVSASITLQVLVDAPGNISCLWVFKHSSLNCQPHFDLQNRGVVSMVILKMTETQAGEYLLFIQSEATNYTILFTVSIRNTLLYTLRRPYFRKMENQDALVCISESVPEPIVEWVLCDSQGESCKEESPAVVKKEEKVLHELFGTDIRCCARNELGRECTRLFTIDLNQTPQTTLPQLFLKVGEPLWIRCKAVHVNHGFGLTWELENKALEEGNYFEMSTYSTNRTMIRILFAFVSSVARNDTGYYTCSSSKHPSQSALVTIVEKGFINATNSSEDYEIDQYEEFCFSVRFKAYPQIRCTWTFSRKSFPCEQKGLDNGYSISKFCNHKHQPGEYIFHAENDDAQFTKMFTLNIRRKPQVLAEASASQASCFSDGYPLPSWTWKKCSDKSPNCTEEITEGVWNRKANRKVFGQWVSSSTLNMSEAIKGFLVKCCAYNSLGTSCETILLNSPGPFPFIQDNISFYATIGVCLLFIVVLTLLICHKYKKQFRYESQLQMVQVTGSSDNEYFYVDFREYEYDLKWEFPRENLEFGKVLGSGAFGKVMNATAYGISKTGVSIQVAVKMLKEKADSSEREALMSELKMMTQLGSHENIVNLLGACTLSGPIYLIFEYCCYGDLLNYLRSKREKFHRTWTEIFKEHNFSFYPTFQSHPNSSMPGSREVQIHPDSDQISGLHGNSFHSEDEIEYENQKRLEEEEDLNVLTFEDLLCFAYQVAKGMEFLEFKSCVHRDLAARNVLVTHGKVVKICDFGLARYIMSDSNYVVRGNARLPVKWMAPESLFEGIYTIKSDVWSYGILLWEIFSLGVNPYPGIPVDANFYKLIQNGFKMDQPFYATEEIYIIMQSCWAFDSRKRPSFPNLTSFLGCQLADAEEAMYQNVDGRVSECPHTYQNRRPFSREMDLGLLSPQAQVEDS
Description: LanthaScreen TR-FRET binding test, FLT3 D835Y. Conditions: FLT3^D835Y 15 nM, kinase tracer 236 3 nM, 25° C., 1 hour; read-out: Inhibition (IC50) of FLT3^D835Y enzyme. The protocol: FLT3 (#PV3182), JAK2 (#PV4210) and JAK3 (#PV3855) recombinant enzymes were purchased from Life Technologies. FLT3-ITD (#0778-0000-1) and FLT3^D835Y (#14-610) proteins were purchased from ProQinase and Merck Millipore, respectively. All the tests were carried out in 384-well plates. The principle of these binding tests is based on the LanthaScreen® TR-FRET methodology from Life Technologies.
The reaction mixture (15 μL total volume) contains the following compounds: 15 nM FLT3, FLT3-ITD or FLT3^D835Y, 3 nM kinase tracer 236 (Life Technologies, #PV5592) and 6 nM LanthaScreen® anti-GST antibody coupled to a europium chelate (Life Technologies, #PV5594) for FLT3-ITD and FLT3^D835Y or 6 nM LanthaScreen® anti-His antibody coupled to a europium chelate (Life Technologies, #PV5596) for FLT3.
The compounds are evaluated at 8 different concentrations prepared by making dilutions from a starting 10 mM stock solution in dimethylsulfoxide (DMSO) (Sigma, #D8418). The final DMSO concentration in the test is 1%. The reaction is carried out at 25° C. for 1 hour and detected on the EnVision® reader (Perkin Elmer) according to the recommendations of the supplier, Life Technologies.
The results are presented (Table 1) as the concentration values of the compound at which 50% of the kinase activity is inhibited, IC50 (μM), generated using the PRISM software (GraphPad).
On the technique in general: TR-FRET usually uses a lanthanide donor and a delayed reading to cut background.

On to `CN1CCN(c2ccc3cc2OCCOCCOc2ccc4c(c2)-c2nc(ncc2CC4)N3)CC1` [Compound 3], for which the IC50 (commonly the midpoint of a concentration-inhibition curve) turned out to be 3 nM. In the case of `c1cc(N2CCNCC2)c2cc1Nc1ncc3c(n1)-c1cc(ccc1CC3)OCCOCCO2` [Compound 5], the IC50 came out at 0.66 nM. As for `c1cc(N2CCC(N3CCOCC3)C2)c2cc1Nc1ncc3c(n1)-c1cc(ccc1CC3)OCCOCCO2` (stereo not shown) [Compound 7], the IC50 is 7.2 nM. In the case of `c1cc(N2CCC(N3CCCCC3)CC2)c2cc1Nc1ncc3c(n1)-c1cc(ccc1CC3)OCCOCCO2` [Compound 10], the IC50 amounted to 1.1 nM. On to `c1cc(OCCN2CCCC2)c2cc1Nc1ncc3c(n1)-c1cc(ccc1CC3)OCCOCCO2` [Compound 14], for which the IC50 was 3.2 nM.

Take `OC1CCN(c2ccc3cc2OCCOCCOc2ccc4c(c2)-c2nc(ncc2CC4)N3)CC1` [Compound 19]: the IC50 was 5.3 nM. Then `CN1CC=C(c2ccc3cc2OCCOCCOc2ccc4c(c2)-c2nc(ncc2CC4)N3)CC1` [Compound 23], with 4.5 nM; and `c1cc(N2CC3CNCC3C2)c2cc1Nc1ncc3c(n1)-c1cc(ccc1CC3)OCCOCCO2` (stereo not shown) [Compound 29], with 1.9 nM; and `CN(C)C1CCN(c2ccc3cc2OCCOCCOc2ccc4c(c2)-c2nc(ncc2CC4)N3)C1` (stereo not shown) [Compound 30], with 3.2 nM. Take `CN1CCN(c2ccc3cc2OCCOCCOc2ccc4c(c2)-c2nc(ncc2CC4)N3)CC1(C)C` [Compound 40]: the IC50 turned out to be 1 nM.

(Values after patent US10323043B2, “Derivatives of macrocyclic N-aryl-tricyclopyrimidine-2-amine polyethers as inhibitors of FTL3 and JAK” (PIERRE FABRE MEDICAMENT, priority 2014, dated 2019).)
